Results from patent US11396453B2, “Metal compound having phase transformation and method of preparing the same” (WEBIOTREE CO., LTD, priority 2020, dated 2022).

How the values were obtained:
[1] = Particle size by DLS (Zetasizer Nano ZS90); format: physicochemical; settings: dispersant water, 25° C.
Procedure: Instrument: Zetasizer Nano ZS90
The particle size of the powder was measured by Zetasizer of Malvern Panalytical Ltd. (UK) using […], and the particle size was measured after dispersing the sample in tertiary distilled water using the model name NANO ZS ZS90.

[2] = Dispersibility evaluation: transmission through PVDF 0.45 μm filter in pH 4.5 buffer, measured by HPLC; format: physicochemical; settings: 38° C.
Procedure: Confirmation Experiment by Difference in Particle Size and Concentration in Weakly Acidic Solvent of Metal Phase Transformation Compound and Peptide (PalGHK)
PVDF 0.45 μm filter is used
Measurement is performed using HPLC with stirring for 24 hours.
Temperature conditions similar to the temperature inside the body (38° C.) is maintained
The solvent is the same as the pH 4.5 buffer, and experiment is performed at 500 or 1000 ppm based on the peptide content of the sample raw material.
Concentration is calculated based on the peptide content (approximately 71%) in the metal compound.
Concentration is calculated based on the peptide content (about 83%) in the peptide (palGHK).

In the case of palmitoyl-GHK [palGHK], the “average size (DLS) of transmitted particles” value ([1]; 500 ppm) is reported as 13.09 nm, the “average size (DLS) of transmitted particles” value ([1]; 1000 ppm) is reported as 12.18 nm and the “dispersibility (filter transmission)” value ([2]; 500 ppm based on peptide content, time 0 hr) is reported as 0%. For the same substance, the “dispersibility (filter transmission)” value ([2]; 500 ppm based on peptide content, time 2 hr) was 21.3%, the “dispersibility (filter transmission)” value ([2]; 500 ppm based on peptide content, time 4 hr) was 27.4% and the “dispersibility (filter transmission)” value ([2]; 500 ppm based on peptide content, time 6 hr) was 37.6%. For the same substance, the “dispersibility (filter transmission)” value ([2]; 500 ppm based on peptide content, time 8 hr) was 39.8%, the “dispersibility (filter transmission)” value ([2]; 500 ppm based on peptide content, time 10 hr) was 37.8% and the “dispersibility (filter transmission)” value ([2]; 500 ppm based on peptide content, time 12 hr) was 35.6%. For the same substance, the “dispersibility (filter transmission)” value ([2]; 500 ppm based on peptide content, time 12 hr, listed as peptide) was “about 35%”, the “dispersibility (filter transmission)” value ([2]; 1000 ppm based on peptide content, time 0 hr) was 0% and the “dispersibility (filter transmission)” value ([2]; 1000 ppm based on peptide content, time 2 hr) was 18.7%. For the same substance, the “dispersibility (filter transmission)” value ([2]; 1000 ppm based on peptide content, time 4 hr) was 27.8%, the “dispersibility (filter transmission)” value ([2]; 1000 ppm based on peptide content, time 6 hr) was 33.2% and the “dispersibility (filter transmission)” value ([2]; 1000 ppm based on peptide content, time 8 hr) was 42.9%. The “dispersibility (filter transmission)” value ([2]; 1000 ppm based on peptide content, time 10 hr) was 47.8%, the “dispersibility (filter transmission)” value ([2]; 1000 ppm based on peptide content, time 12 hr) was 47.8% and the “dispersibility (filter transmission)” value ([2]; 1000 ppm based on peptide content, time 12 hr, listed as peptide) was “about 47%”.
